Data as given in PMC6058608, “Cell penetrating peptides: a comparative transport analysis for 474 sequence motifs” (Drug Delivery, 2018).

These substances were tested on HeLa cells (assay: CPP uptake experiment: cellular fluorescence of FAM-labeled CPPs). Details: FAM not coupled to a CPP; mean value and standard error of two measurements.
Assay type: cell-based, human
Procedure: The human cervix adenocarcinoma cell line HeLa was obtained from I.A.Z. (Munich, Germany). As cell growth medium DMEM/Ham’s F-12 (1:1) supplemented with 2 mM L-glutamine, 10% fetal bovine serum, and 1% penicillin/streptomycin (all Capricorn Scientific, Ebsdorfergrund, Germany, formerly PAA Laboratories) was used, and cells were cultured at 37 °C and 5% CO2. They were passaged before reaching confluence; for the experiments, cells at passages p8–p20 were used. For testing uptake efficiency and cytotoxicity of CPPs, cells were seeded in 96-well µ-plates (ibidi, Munich, Germany) at a concentration of 6 × 10^4 cells per well and incubated for 48 h to reach confluence before performing the experiments.
All solutions used were warmed to 37 °C, with CPP incubation performed at 37 °C and 5% CO2. CPP working solutions were prepared in 96-well polypropylene plates (Corning, Amsterdam, Netherlands) directly before incubation by diluting the 50 µM FAM-labeled CPP stock solutions to 10 µM with cell growth medium. The confluent HeLa cells in the 96-well µ-plates were exposed to 100 µl of a 10 µM CPP working solution per well for 90 min. Cell growth medium served as negative control. After incubation, the cells were washed twice with 300 µl of CM-PBS (PAA Laboratories), then 100 µl CM-PBS was added before determining fluorescence intensities in a plate reader (SpectraMax M5, Molecular Devices, Sunnyvale, CA) at an excitation wavelength of 495 nm and an emission wavelength of 530 nm. Transmission images of the treated cell layers were taken using a MORE microscope (TILL Photonics, Munich, Germany) equipped with a 10×/0.45 objective (Zeiss, Jena, Germany), an FITC filterset (ET480_40x/ET535_50 m/T510LPXRXT, Chroma, Rockingham, NC) and LED and oligochrome light source (FEI). Images were acquired using a Stingray F-145B CCD camera (Allied Vision Tech., Stadtroda, Germany) via live acquisition software (v2.2.2, FEI).

Which “Uptake of FAM without CPP into the HeLa layer” value does the source give for “5(6)-carboxyfluorescein [FAM, reference compound]” here?
Its value is 14.3 ± 8.1 RFU.

Same assay, conditions: HeLa cells after incubation with 10 µM FAM-labeled CPP, 90 min, 37 °C; mean of two experiments (Table 1)

How did the “Fluorescence (RFU)” value turn out when CWKKKKKKKKKKKKKKKKKK [compound 429] was run?
Its value is 417.94 RFU.

Which “Fluorescence (RFU)” value does the source give for GLFKALLKLLKSLWKLLLKA [compound 431] here?
Its value is 326.66 RFU.

For GLWRALWRALRSLWKLKRKV [compound 425], which “Fluorescence (RFU)” value is on record?
The value was 384.64 RFU.

Which “Fluorescence (RFU)” value does the source give for GLWRALWRGLRSLWKKKRKV [compound 427] here?
The value was 375.17 RFU.

GLWRALWRGLRSLWKLKRKV [compound 426] was tested. Which “Fluorescence (RFU)” value did it give?
Its value is 347.66 RFU.

Which “Fluorescence (RFU)” value does the source give for KALAKALAKLWKALAKAA [compound 373] here?
The value was 345.58 RFU.

How did the “Fluorescence (RFU)” value turn out when “KKKKKKKKKKKKKKKKKKK [compound 412, designed model peptide, FAM-labeled CPP]” was run?
Its value is 632.01 RFU.

For KLAAALLKKWKKLAAALL [compound 375], which “Fluorescence (RFU)” value is on record?
The value was 335.89 RFU.

Which “Fluorescence (RFU)” value does the source give for “KLALKLALKALKAALK [compound 296, designed model peptide, FAM-labeled CPP]” here?
The value was 478.40 RFU.

For KLALKLALKALKAALKLA [compound 405], which “Fluorescence (RFU)” value is on record?
The value was 440.41 RFU.

Which “Fluorescence (RFU)” value does the source give for KLALKLALKAWKAALKLA [compound 372] here?
The value was 309.34 RFU.

With “KTVLLRKLLKLLVRKI [compound 342, designed model peptide, FAM-labeled CPP]” as the substance, how does the “Fluorescence (RFU)” value read?
The value was 855.56 RFU.

How did the “Fluorescence (RFU)” value turn out when LIRLWSHLIHIWFQNRRLKWKKK [compound 466] was run?
The value was 425.60 RFU.

LLKKRKVVRLIKFLLK [compound 343] was tested. Which “Fluorescence (RFU)” value did it give?
Its value is 435.30 RFU.

How did the “Fluorescence (RFU)” value turn out when LNSAGYLLGKINLKALAALAKKIL [compound 473] was run?
The value was 422.13 RFU.

How did the “Fluorescence (RFU)” value turn out when PKKKRKVALWKTLLKKVLKA [compound 415] was run?
The value was 390.81 RFU.

Which “Fluorescence (RFU)” value does the source give for RQARRNRRRALWKTLLKKVLKA [compound 446] here?
Its value is 450.97 RFU.

Which “Fluorescence (RFU)” value does the source give for “VKRKKKPALWKTLLKKVLKA [compound 416, CPP derived from the antimicrobial peptide dermaseptin S4 attached to a nuclear localization signal, FAM-labeled]” here?
The value was 925.42 RFU.

WLRRIKAWLRRIKALNRQLGVAA [compound 471] was tested. Which “Fluorescence (RFU)” value did it give?
The value was 1011.42 RFU.

YTAIAWVKAFIRKLRK [compound 351] was tested. Which “Fluorescence (RFU)” value did it give?
The value was 401.31 RFU.
